This test addresses T1, human P2X7 receptor (Homo sapiens, UniProt Q99572).
T1 construct: expressed in transfected cells
T1 sequence (Q99572 1-595): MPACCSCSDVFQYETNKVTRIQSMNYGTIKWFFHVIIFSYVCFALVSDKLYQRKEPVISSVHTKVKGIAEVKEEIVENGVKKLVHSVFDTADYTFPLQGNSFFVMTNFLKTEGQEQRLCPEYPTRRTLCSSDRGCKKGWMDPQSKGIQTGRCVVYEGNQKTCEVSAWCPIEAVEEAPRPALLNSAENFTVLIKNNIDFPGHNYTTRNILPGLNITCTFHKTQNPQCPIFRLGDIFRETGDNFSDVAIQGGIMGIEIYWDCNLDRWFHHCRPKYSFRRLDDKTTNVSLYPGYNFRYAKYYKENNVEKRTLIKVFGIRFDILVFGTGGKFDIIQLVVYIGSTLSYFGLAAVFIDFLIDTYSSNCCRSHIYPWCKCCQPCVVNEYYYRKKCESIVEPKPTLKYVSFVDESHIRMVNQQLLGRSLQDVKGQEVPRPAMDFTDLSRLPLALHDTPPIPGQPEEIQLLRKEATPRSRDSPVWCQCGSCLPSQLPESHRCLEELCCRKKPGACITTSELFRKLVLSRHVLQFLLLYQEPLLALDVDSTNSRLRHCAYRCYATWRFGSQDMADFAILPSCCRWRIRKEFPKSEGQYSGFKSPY
As to the kind of experiment: Ethidium Accumulation Assay. It is filed as cell-based. The conditions noted are these: HEK293 cells stably expressing human recombinant P2X7 receptors; 1 mM ATP; values given as 'about'; read-out: pIC50 for human P2X7 receptor antagonist activity (blocking ATP responses) in the Ethidium Accumulation Assay (converted). On the procedure: Studies were performed using NaCl assay buffer of the following composition: 140 mM NaCl, 10 mM HEPES [4-(2-hydroxyethyl)-1-piperazine-1-ethanesulfonic acid], 5 mM N-methyl-D-glucamine, 5.6 mM KCl, 10 mM D-glucose, 0.5 mM CaCl2 (pH 7.4).
Human Embryonic Kidney (HEK) 293 cells, stably expressing human recombinant P2X7 receptors, were grown in poly-D-lysine pre-treated 96 well plates for 18-24 hours. […] The cells were washed twice with 350 μl of the assay buffer, before addition of 50 μl of the assay buffer containing the putative P2X7 receptor antagonist compound. (A small amount of dimethyl sulfoxide, for initially dissolving the compound, is optionally used and present in this 50 μl test compound sample.) The cells were then incubated at room temperature (19-21° C.) for 30 min before addition of ATP and ethidium (100 μM final assay concentration). The ATP concentration was chosen to be close to the EC80 for the receptor type and was 1 mM for studies on the human P2X7 receptor. Incubations were continued for 8 or 16 min and were terminated by addition of 25 μl of 1.3M sucrose containing 4 mM of the P2X7 receptor antagonist Reactive Black 5 (Aldrich). […] Antagonist pIC50 values for blocking ATP responses were determined using iterative curve fitting techniques.
As to `Cc1ccc(N2CCOCC2)cc1N1CCN(C(=O)c2cccc(Cl)c2Cl)CC1=O` [Example 54, 4-[(2,3-dichlorophenyl)carbonyl]-1-[2-methyl-5-(4-morpholinyl)phenyl]-2-piperazinone], the IC50 is 2.51 to 100 nM.

For `O=C(c1c(Cl)cccc1Cl)N1CCN(c2ccc(F)cc2Cl)C(=O)C1` [Example 31, 1-(2-chloro-4-fluorophenyl)-4-[(2,6-dichlorophenyl)carbonyl]-2-piperazinone], the IC50 was 2.51 to 100 nM.

`O=C(c1c(Cl)cc(Cl)cc1Cl)N1CCN(c2cc(N3CCOCC3)ccc2Cl)C(=O)C1` [Example 77, 1-[2-chloro-5-(4-morpholinyl)phenyl]-4-[(2,4,6-trichlorophenyl)carbonyl]-2-piperazinone]: the IC50 is 2.51 to 100 nM. With `O=C(c1ccc(Cl)cc1Cl)N1CCN(c2ccccc2Cl)C(=O)C1` [Example 8, 1-(2-Chlorophenyl)-4-[(2,4-dichlorophenyl)carbonyl]-2-piperazinone], the IC50 was 5.01 to 200 nM. Regarding `O=C(c1cccc(Cl)c1Cl)N1CCN(c2cc(N3CCOCC3)ccc2Cl)C(=O)C1` [Example 76, 1-[2-chloro-5-(4-morpholinyl)phenyl]-4-[(2,3-dichlorophenyl)carbonyl]-2-piperazinone], the IC50 is 2.51 to 100 nM.

On to `CC(C)c1ccccc1N1CCN(C(=O)c2cccc(C(F)(F)F)c2Cl)CC1=O` [Example 25, 4-{[2-chloro-3-(trifluoromethyl)phenyl]carbonyl}-1-[2-(1-methylethyl)phenyl]-2-piperazinone], for which the IC50 is 2.51 to 100 nM. The same measure for `Cc1cc(F)c(Br)cc1N1CCN(C(=O)c2cccc(C(F)(F)F)c2Cl)CC1=O` [Example 45, 1-(5-bromo-4-fluoro-2-methylphenyl)-4-{[2-chloro-3-(trifluoromethyl)phenyl]carbonyl}-2-piperazinone]: 2.51 to 100 nM; for `CCN1CCN(C(=O)c2cccc(Cl)c2Cl)CC1=O` [Example 17, 4-[(2,3-Dichlorophenyl)carbonyl]-1-ethyl-2-piperazinone]: 5.01 to 200 nM. On to `O=C(c1cccc(Cl)c1Cl)N1CCN(c2ccc(F)cc2Cl)C(=O)C1` [Example 11, 1-(2-Chloro-4-fluorophenyl)-4-[(2,3-dichlorophenyl)carbonyl]-2-piperazinone], for which the IC50 was 5.01 to 200 nM. `CC(c1ccccc1)N1CCN(C(=O)c2cccc(C(F)(F)F)c2Cl)CC1=O` (stereo not drawn) [Example 85, 4-{[2-chloro-3-(trifluoromethyl)phenyl]carbonyl}-1-(1-phenylethyl)-2-piperazinone]: the IC50 was 2.51 to 100 nM.

On to `Cc1ccccc1N1CCN(C(=O)c2cccc(Cl)c2Cl)CC1=O` [Example 4, 4-[(2,3-Dichlorophenyl)carbonyl]-1-(2-methylphenyl)-2-piperazinone], for which the IC50 is 5.01 to 200 nM.

In the case of `O=C1CN(C(=O)c2cccc(Cl)c2Cl)CCN1Cc1ccc(F)cc1Cl` [Example 15, 1-[(2-Chloro-4-fluorophenyl)methyl]-4-[(2,3-dichlorophenyl)carbonyl]-2-piperazinone], the IC50 was 5.01 to 200 nM.

Consider `Cc1cccc(C(=O)N2CCN(c3ccc(F)cc3Cl)C(=O)C2)c1Cl` [Example 30, 1-(2-chloro-4-fluorophenyl)-4-[(2-chloro-3-methylphenyl)carbonyl]-2-piperazinone], for which the IC50 is 2.51 to 100 nM. As for `CN1CCN(C(=O)c2cccc(Cl)c2Cl)CC1=O` [Example 16, 4-[(2,3-Dichlorophenyl)carbonyl]-1-methyl-2-piperazinone], the IC50 is 5.01 to 200 nM. As for `O=C(c1cccc(C(F)(F)F)c1F)N1CCN(c2ccc(F)cc2Cl)C(=O)C1` [Example 56, 1-(2-chloro-4-fluorophenyl)-4-{[2-fluoro-3-(trifluoromethyl)phenyl]carbonyl}-2-piperazinone], the IC50 was 2.51 to 100 nM. As for `Cc1ccc(Br)cc1N1CCN(C(=O)c2cccc(C(F)(F)F)c2Cl)CC1=O` [Example 53, 1-(5-bromo-2-methylphenyl)-4-{[2-chloro-3-(trifluoromethyl)phenyl]carbonyl}-2-piperazinone], the IC50 is 2.51 to 100 nM.

For `Cc1ccc(N2CCC(O)C2)cc1N1CCN(C(=O)c2cccc(C(F)(F)F)c2Cl)CC1=O` (stereo not drawn) [Example 83, 4-{[2-chloro-3-(trifluoromethyl)phenyl]carbonyl}-1-[5-(3-hydroxy-1-pyrrolidinyl)-2-methylphenyl]-2-piperazinone], the IC50 was 2.51 to 100 nM. For `CC(C)c1ccccc1N1CCN(C(=O)c2ccc(F)cc2Cl)CC1=O` [Example 26, 4-[(2-chloro-4-fluorophenyl)carbonyl]-1-[2-(1-methylethyl)phenyl]-2-piperazinone], the IC50 was 2.51 to 100 nM. For the molecule `Cc1ccccc1N1CCN(C(=O)c2cccc(C(F)(F)F)c2Cl)CC1=O` [Example 1, 4-{[2-Chloro-3-(trifluoromethyl)phenyl]carbonyl}-1-(2-methylphenyl)-2-piperazinone], the IC50 is 5.01 to 200 nM. The same measure for `O=C1CN(C(=O)c2cccc(C(F)(F)F)c2Cl)CCN1CC1CCCCC1` [Example 66, 4-{[2-chloro-3-(trifluoromethyl)phenyl]carbonyl}-1-(cyclohexylmethyl)-2-piperazinone]: 2.51 to 100 nM. As for `CN1CCN(C(=O)c2cccc(C(F)(F)F)c2Cl)CC1=O` [Example 35, 4-{[2-chloro-3-(trifluoromethyl)phenyl]carbonyl}-1-methyl-2-piperazinon], the IC50 was 2.51 to 100 nM. As to `CC(C)c1ccccc1N1CCN(C(=O)c2cccc(Cl)c2Cl)CC1=O` [Example 27, 4-[(2,3-dichlorophenyl)carbonyl]-1-[2-(1-methylethyl)phenyl]-2-piperazinone], the IC50 was 2.51 to 100 nM. With `Cc1cc(F)ccc1N1CCN(C(=O)c2cccc(Cl)c2Cl)CC1=O` [Example 28, 4-[(2,3-dichlorophenyl)carbonyl]-1-(4-fluoro-2-methylphenyl)-2-piperazinone], the IC50 was 2.51 to 100 nM. Regarding `CC(C)Oc1cc(F)ccc1N1CCN(C(=O)c2cccc(Cl)c2Cl)CC1=O` [Example 58, 4-[(2,3-dichlorophenyl)carbonyl]-1-{4-fluoro-2-[(1-methylethyl)oxy]phenyl}-2-piperazinone], the IC50 was 2.51 to 100 nM.

Turning to `O=C(c1ccc(F)c(F)c1Cl)N1CCN(c2ccc(F)cc2Cl)C(=O)C1` [Example 32, 4-[(2-chloro-3,4-difluorophenyl)carbonyl]-1-(2-chloro-4-fluorophenyl)-2-piperazinone], the IC50 is 2.51 to 100 nM. With `CCC(CC)N1CCN(C(=O)c2cccc(C(F)(F)F)c2Cl)CC1=O` [Example 47, 4-{[2-chloro-3-(trifluoromethyl)phenyl]carbonyl}-1-(1-ethylpropyl)-2-piperazinone], the IC50 was 2.51 to 100 nM. As to `O=C(c1cccc(Cl)c1Cl)N1CCN(c2ccc(Cl)cc2)C(=O)C1` [Example 7, 1-(4-Chlorophenyl)-4-[(2,3-dichlorophenyl)carbonyl]-2-piperazinone], the IC50 is 5.01 to 200 nM.
